# Earlier results in patent publication US12514855B2 (IRR, Inc., priority 2020, dated 2026).
# What was measured:
# [1] = with warfarin, theophylline, digoxin, terfenadine, oral contraceptives, or prednisone
# [2] = system: histamine induced wheal and flare
# [3] = in vivo
# H1 receptor = H1 receptor (Homo sapiens, UniProt P35367); details: in an acidic pH
# [4] = in vivo; remark: listed apart in the source
# [5] = airway epithelial cells from nose and lung
# H1 receptor, sequence (P35367 whole entry): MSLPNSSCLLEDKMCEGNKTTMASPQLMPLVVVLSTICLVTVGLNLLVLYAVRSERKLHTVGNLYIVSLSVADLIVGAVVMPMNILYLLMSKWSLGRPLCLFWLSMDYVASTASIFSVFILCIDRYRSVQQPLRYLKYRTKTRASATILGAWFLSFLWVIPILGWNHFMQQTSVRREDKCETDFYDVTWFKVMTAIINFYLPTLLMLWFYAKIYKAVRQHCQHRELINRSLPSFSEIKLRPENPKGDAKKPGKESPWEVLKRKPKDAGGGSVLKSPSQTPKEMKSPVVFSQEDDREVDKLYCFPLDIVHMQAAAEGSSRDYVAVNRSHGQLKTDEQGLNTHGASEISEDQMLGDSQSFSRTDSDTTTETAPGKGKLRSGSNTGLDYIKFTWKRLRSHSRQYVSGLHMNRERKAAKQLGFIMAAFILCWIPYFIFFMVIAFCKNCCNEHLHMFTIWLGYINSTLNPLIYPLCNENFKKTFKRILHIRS
smiles,measurement,setting,value
CC(C)(O)c1ccccc1CC[C@@H](SCC1(CC(=O)O)CC1)c1cccc(/C=C/c2ccc3ccc(Cl)cc3n2)c1 [montelukast],drug interactions,[1],no drug interactions
O=C(O)COCCN1CCN([C@H](c2ccccc2)c2ccc(Cl)cc2)CC1 [levocetirizine],potency through histamine induced wheal and flare data,[2]; compared with modern generation antihistamines,most potent of the five modern generation antihistamines
same,effectiveness versus fexofenadine,[2]; levocetirizine 5 mg per day vs fexofenadine 180 mg per day,more effective than fexofenadine
same,HRV viral replication,human rhinovirus (HRV); [5],inhibit
same,HRV-induced ICAM-1,human rhinovirus (HRV); [5],inhibit
same,HRV-induced cytokine expression,human rhinovirus (HRV); [5],inhibit
same,levels of HRV-induced increases in ICAM-1,"human rhinovirus (HRV); levocetirizine added before, after, or at the time of the HRV infection",reduced
same,time to steady state level,[3],40 h
same,receptor affinity over first generation mepyramine,H1 receptor,5 ×
same,dose that can be safely administered,[4],up to 30 mg/day
